According to patent US20200392219A1, “EXTRACELLULAR VESICLES COMPRISING MEMBRANE-TETHERED TGF-BETA, COMPOSITIONS AND METHODS OF USE THEREOF” (TRUSTEES OF TUFTS COLLEGE, priority 2017, published 2020):

Legend:
[1] = system: CD4+ T cells (ConA-stimulated PBMC); assay: ConA mitogen-induced CD4+ T cell proliferation in CFSE-stained PBMC (PBMC responder/suppression assay); assay type: cell-based, canine; details: for effect of co-added inhibitor on WJ-MSC EV mediated suppression of CD4+ T cell division: 10 μM TGF-βRI inhibitor, 50 μM ZM241385, 0.1 μg/ml neutralizing antibody
Method: Serum-free culture medium from canine Wharton's Jelly mesenchymal stem cells (WJ-MSC: CD44^+, CD90^+, CD34^−, CD45^−, MHCII^−, n=6 cell lines) was collected after 48 hours, and extracellular vesicles (WJ-EV) were isolated by differential centrifugation. WJ-EV output was assessed using single vesicle nanoparticle tracking analysis (NTA). CFSE-stained peripheral blood mononuclear cells (PBMC) were collected from healthy dogs (n=8), exposed to Concanavalin A mitogen (ConA; 5 μg/ml) and co-incubated with WJ-MSC (1:10) across transwell membrane (0.4 μm pore size) or with WJ-MSC EV (1:10^4)±10 μM SB431542 (TGFβR1 inhibitor) or TGF-β neutralizing (e.g., inhibiting) antibody (Ab) for 72 hours. Analysis of CFSE fluorescence using FlowJo (v7.6.5) yielded % CD4^+ cells that had undergone division (T-cell proliferation).
PBMC responder assay: Twelve healthy adult purpose-bread Beagle dogs (5 neutered males, 7 spayed females) housed at the Laboratory Animal Medicine department at the Cummings School of Veterinary Medicine at Tufts University served as blood donors under an approved protocol. […] or WJ-MSC were tested in triplicate against a minimum of 3 different PBMC donor cell samples (see Figure legends for ‘n’ of each experiment). Healthy status was confirmed by clinical examination, and hematological and serum biochemical testing within six months of blood sampling. All dogs were fasted for 12 hours prior to peripheral blood sampling. Peripheral blood samples were taken via jugular venipuncture using a 21 gauge needle, and blood was immediately placed into an EDTA collection tube and rotated 1-2 times gently. Blood was diluted 1:1 with cold PBS or centrifuged (1300×g, 10 min) prior to dilution 1:2 in PBS, followed by density-gradient centrifugation using Ficoll-Paque (density 1.077; GE Healthcare Life Sciences) to harvest peripheral blood mononuclear cells (PBMC). PBMC were washed in RPMI (Life Technologies) supplemented with 10% heat-inactivated fetal bovine serum (Gibco), […] (Life Technologies), 100 μM β-mercaptoethanol (Sigma-Aldrich), 10,000 U/ml penicillin-streptomycin, 2 mM L-glutamine (Life Technologies), and 2.2 mg/mL of sodium bicarbonate (Thermo Fisher Scientific) (complete RPMI, ‘cRPMI’). For mitogen induced lymphocytes proliferation assays, PBMC were suspended in 1 ml cRPMI and 0.5 μof 10 mM carboxyfluorescein succinimidyl ester (CFSE, Thermo Fisher Scientific) and were incubated (10 min). For initial characterization of WJ-MSC effects on responder PBMC, PBMC were plated on a 24-well plate on the top of a 0.4 μm Transwell (Corning) across from the WJ-MSC in a 10:1 ratio (PBMC:MSC) in a total volume of 1 ml medium (n=3 technical replicates/sample). All plates were incubated at 37° C. in the dark for 72 hours prior to analysis.
Dose-responses of TV MSC-EV: To investigate the dose response of PBMC to WJ-MSC EV, the […] were plated on a 96-well plate in cRPMI with addition of 1 mM ATP, with or without 5 μg/ml Concanavalin A (ConA, Sigma-Aldrich). Responder PBMC were incubated with WJ-MSC EV in a total volume of 200 μL medium (n=3 technical replicates per sample). PBMC were incubated with WJ-MSC EV in a 1:10^2, 1:10^3, or 1:10^4 (PBMC:EV) ratio. After 72 hours of incubation, the PBMC were collected and surface stained for CD4 (rat anti-canine CD4-Alexa 647, clone YKIX302.9, AbD Serotec). Cells were stained for 30 minutes, washed twice with cold PBS and 5% FBS, and resuspended in 200 μl PBS and 5% FBS with 5 μl 7AAD (Becton Dickinson) for analysis by flow cytometry (Accuri C6, Becton Dickinson). The effect of WJ-MSC or WJ-MSC EV on CD4-positive (CD4^+) T cell (i.e., T helper cell) proliferation (percentage of cells proliferating, number of divisions for proliferating cells) was measured by evaluating CFSE fluorescence utilizing the FlowJo® proliferation platform (FlowJo, V10, Ashland, Oreg.) after gating on the viable CD4^+ lymphocyte population. […]

[2] = system: WJ-MSC; assay: EV (exosome) output from WJ-MSC under GW4869, by nanoparticle tracking analysis; assay type: cell-based, canine
Method: Particle size distribution using nanoparticle tracking analysis (NTA): Samples were analyzed using a NanoSight N300 unit (Malvern) equipped with a 488 nm (blue) laser module and Nanoparticle Tracking Analysis 3.0 software. All samples were diluted in sterile PBS to a concentration of 1-10×10^8 particles/mL for analysis. Specific NTA settings were optimized for each sample, with fixed settings of temperature (23° C.), screen gain (1.0), infusion flow rate (5 μL/min), and camera level set at 12-14 depending on sample characteristics. Five videos were recorded for each sample (30-120 s video length) with all settings remaining constant within each sample source to minimize variation. […] The NTA unit was periodically evaluated for accuracy of size determination using polystyrene beads of known size (100 and 200 nm).
EV depletion and enzymatic digestion experiments: EV were isolated as described, resuspended in 5 ml PBS, and divided into 5 fractions of 1 ml each. […] The EV sediment was resuspended in PBS and particle numbers were quantified using nanoparticle tracking analysis (NTA) as described supra. […] The retentate was resuspended in 1 ml PBS, and particle content was evaluated by NTA. […] As well, WJ-MSC EV, EV (10^4:1 PBMC) from conditioned medium of non-MSC fibroblasts (canine left ventricular cardiac fibroblasts) were evaluated for suppression of PBMC.

In the case of Triton-X, the “effect of pre-treating WJ-MSC EV on their suppression of CD4+ T cell division” value ([1]; 0.1% Triton-X, 2 μg/ml RNAse A, proteinase K 30 min 37°C, heparinase 0.006 U/ml 3 hours, 10^4 EV:1 PBMC) is reported as “completely abrogated”.

`NC(=O)c1ccc(-c2nc(-c3ccc4c(c3)OCO4)c(-c3ccccn3)[nH]2)cc1` [SB431542] was tested, and the “effect of co-added inhibitor on WJ-MSC EV mediated suppression of CD4+ T cell division” value ([1]; 72 h) was “significantly reduced” and the “% CD4+ division” value ([1]; Example 2, 10 μM SB431542 added to ConA+WJ-EV, ConA+WJ-EV alone 23±13%) was 52±17%.

`O=C(/C=C/c1ccc(/C=C/C(=O)Nc2ccc(C3=NCCN3)cc2)cc1)Nc1ccc(C2=NCCN2)cc1` [GW4869] was tested, and the “release of WJ-MSC-EV (particles released in 48 hours)” value ([2]; increasing concentrations, n=3 WJ-MSC lines) was “decreased”, the “concentration giving maximal suppression of exosome output without unacceptable loss of viability” value ([2]; increasing doses applied to WJ-MSC, 48 hours) was 5 to 10 µM and the “T cell division with WJ-MSC pre-treated with EV-release inhibitor” value ([1]; WJ-MSC pre-treated 48 hours at 6 μM, then across Transwell from PBMC with ConA, untreated WJ-MSC 28.2±1.4%) was 51.7±13.5%.

In the case of `Nc1nc(NCCc2ccc(O)cc2)nc2nc(-c3ccco3)nn12` [ZM241385], the “effect of co-added inhibitor on WJ-MSC EV mediated suppression of CD4+ T cell division” value ([1]; 72 h) is reported as “significantly reduced”.

In the case of “soluble TGF-β1: recombinant human TGF-β1 (R&D Systems)”, the “suppression of mitogen driven T cell division by exogenous TGF-β” value (“suppression … by exogenous TGF-β” below) ([1]; 5 ng/ml added to ConA stimulated PBMC) is reported as “not”, the “suppression … by exogenous TGF-β” value ([1]; 10 ng/ml added to ConA stimulated PBMC) is reported as “suppressed” and the “suppression … by exogenous TGF-β” value ([1]; 50 ng/ml added to ConA stimulated PBMC) is reported as “suppressed”. For the same compound, the “% CD4+ division (CD4+ cells that had undergone division)” value ([1]; Example 2, ConA 5 μg/ml, 72 h, WJ-MSC 1:10 across transwell, WJ-EV 1:10^4, ConA alone 60±17%) was 21±10%.

With “IFN-γ: interferon-gamma used to pre-condition WJ-MSC” the “further suppression by WJ-MSC or WJ-MSC EV after pre-conditioning of WJ-MSC” value ([1]; WJ-MSC pretreated with 500 ng IFN-γ for 48 hours) was “not statistically significant”.
